Patent publication US8575091B1, “Amylin analogues and pharmaceutical compositions thereof” (Novo Nordisk A/S, priority 2012, dated 2013)
Read-outs that look alike come from different tables or passages of the source. Numbered stars: 1 amine (or outer) side, 2 acyl side, 3 side chain; on linkers, the order of the positions; unused ones are H or OH. Bridge positions count the residues as written; N and C are the ends. Side chains are listed from the residue outwards. Peptide text beside a SMILES is read from it. * marks the point of attachment. C20 diacid = O=C(O)CCCCCCCCCCCCCCCCCCC(=O)*; γGlu = O=C(O)[C@H](CCC(=O)[*:2])N[*:1]; AEEA = NCCOCCOCC(=O)O

What was measured:
Wistar rats = assay: Assay (XII) single subcutaneous administration, plasma calcium in rats; format: in vivo, rat; details: 100 nmol/kg
Procedure: Assay (XII)—Effect from Single Subcutaneous Administration of Analogue on Plasma Calcium in Rats
Male Wistar rats (Taconic Europe, ˜250 g at test date) were acclimatized to handling prior to the study. Rats were divided in groups of five and subcutaneously dosed with test compound at time=0. At time T=−15 min; 1 h, 2 h, 4 h, 7 h, 12 h, and 24 h a blood sample was obtained and heparin stabilized plasma was analysed for total calcium (Cobas, Hitachi). Data are illustrated in graphs as mean±SEM.

[1] = target: T1, human amylin receptor (amylin 3(a) receptor: human calcitonin receptor + RAMP-3) (Homo sapiens, UniProt O60896+P30988); assay: Assay (II)a functional assay, human amylin receptor (CRE luciferase, BHK cells); format: cell-based; details: for EC50: functional assay, human amylin receptor, read-out: hAmylin-R funct. EC50
T1 construct: expressed in transfected cells
T1 sequence (P30988 25-474): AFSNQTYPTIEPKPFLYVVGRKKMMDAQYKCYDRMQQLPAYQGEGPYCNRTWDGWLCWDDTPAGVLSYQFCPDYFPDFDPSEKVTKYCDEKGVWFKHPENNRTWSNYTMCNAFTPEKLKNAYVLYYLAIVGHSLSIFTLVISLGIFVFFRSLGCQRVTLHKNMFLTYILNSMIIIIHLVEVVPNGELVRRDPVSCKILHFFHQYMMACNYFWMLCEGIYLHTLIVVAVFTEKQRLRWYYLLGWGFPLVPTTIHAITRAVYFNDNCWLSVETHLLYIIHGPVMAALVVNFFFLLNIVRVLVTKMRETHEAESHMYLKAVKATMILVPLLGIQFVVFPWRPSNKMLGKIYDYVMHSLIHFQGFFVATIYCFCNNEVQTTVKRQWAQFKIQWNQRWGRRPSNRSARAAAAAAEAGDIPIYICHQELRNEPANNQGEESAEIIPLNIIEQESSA
T1 sequence (O60896 24-148 partner): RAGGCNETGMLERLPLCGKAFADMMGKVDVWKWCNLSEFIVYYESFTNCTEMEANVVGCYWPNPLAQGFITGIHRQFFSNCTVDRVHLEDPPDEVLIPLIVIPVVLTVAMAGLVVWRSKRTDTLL

human amylin receptor = target: T2, human amylin receptor (Homo sapiens, UniProt O60896+P30988); assay: Assay (V) binding to the human amylin receptor (SPA, 125I-rat amylin); details: for IC50: read-out: hAmylin-R bind IC50
T2 construct: expressed in transfected cells
T2 sequence (P30988 25-474): T1 sequence (P30988 25-474)
T2 sequence (O60896 24-148 partner): T1 sequence (O60896 24-148 partner)
Outline: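 IC50, taken as receptor affinity, came from one-site binding competition analysis of scintillation proximity counts. Amylin 3(a)/CRE-luc cell membranes (35 ng/μL final) were mixed with SPA beads (0.05 mg/well) in 50 mM Hepes pH 7.4 containing CaCl2, MgCl2, 0.1% OA and 0.02% Tween20.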

[2] = target: T3, human calcitonin receptor (Homo sapiens, UniProt P30988); assay: Assay (II)a functional assay, human calcitonin receptor (CRE luciferase, BHK cells);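 note: luminescence from a CRE-driven luciferase reporter, read by single photon counting after cells were exposed to test samples for 3 h at 37 °C under 5% CO2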; format: cell-based; details: read-out: hCTR funct. EC50
T3 construct: expressed in transfected cells
T3 sequence (P30988 25-474): T1 sequence (P30988 25-474)

[3] = target: T3, human calcitonin receptor; assay: Assay (VII) binding to the human calcitonin receptor (SPA, 125I-Calcitonin); details: read-out: hCTR bind IC50;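 note: cell membranes coupled to SPA beads, competitive displacement read by scintillation counting, IC50 derived from a one-site competition fit as a measure of receptor affinity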
[4] = Assay (IV) determination of solubility; format: physicochemical; details: for Solubility pH 6.5 Concentration (μM): pH 6.5, 18 hours room temperature; for Solubility pH 7.0 Concentration (μM): pH 7.0, 18 hours room temperature; for Solubility pH 7.5 Concentration (μM): pH 7.5, 18 hours room temperature; for Solubility pH 8.0 Concentration (μM): pH 8.0, 18 hours room temperature
Procedure: Assay (IV)—Determination of Solubility
The polypeptide was dissolved in water at ˜500 nmol/ml and mixed 1:1 with a series of buffers (100 mM glycylglycine pH 3.0, 100 mM glycylglycine pH 4.0, 100 mM glycylglycine pH 5.0, 100 mM bistrispropane pH 6.0, 100 mM bistrispropane pH 6.5, 100 mM bistrispropane pH 7.0, 100 mM bistrispropane pH 7.5, 100 mM bistrispropane pH 8.0). After 18 hours at room temperature the samples were centrifuged and the polypeptide concentration determined by UPLC.

[5] = human amylin receptor membranes, SPA

EC50 [1] | IC50 (human amylin receptor; [5]) | EC50 [2] | IC50 [3] | Solubility pH 4.0 Concentration (μM) ([4]; pH 4.0, 18 hours room temperature) | Solubility pH 6.0 Concentration (μM) ([4]; pH 6.0, 18 hours room temperature) | IC50 (human amylin receptor; binding to human amylin receptor) | Ratio hCT/hAmylin binding (human amylin receptor; human binding ratio, included for comparison) | Solubility pH 6.5 Concentration (μM) [4] | Solubility pH 7.0 Concentration (μM) [4] | Solubility pH 7.5 Concentration (μM) [4] | Solubility pH 8.0 Concentration (μM) [4] | Ratio hCT/hAmylin funct. ([1]; Table 6, human functional selectivity (hCTR EC50 / hAmylin-R EC50)) | Ratio hCT/hAmylin funct. ([1]; Table 6a, human functional selectivity (hCTR EC50 / hAmylin-R EC50), at least 5) | Ratio hCT/hAmylin funct. ([1]; Table 6j, hCTR funct. EC50 / hAmylin-R funct. EC50) | Ratio hCT/hAmylin funct. ([1]; Table 6k, hCTR funct. EC50 / hAmylin-R funct. EC50) | SMILES | Plasma calcium red (%) 0-12 h (Wistar rats; single s.c., maximal reduction 0-12 h, compared to vehicle) | suppression of plasma calcium level relative to vehicle (Wistar rats; single subcutaneous, over 24 hours)
0.182 nM | 0.411 nM | 3 nM | 19.5 nM |  |  |  |  |  |  |  |  |  |  |  |  | CC[C@H](C)[C@H](NC(=O)[C@H](C)NC(=O)CNC(=O)[C@H](Cc1ccccc1)NC(=O)[C@H](CC(N)=O)NC(=O)[C@@H]1CCCN1C(=O)[C@H](CO)NC(=O)[C@H](CO)NC(=O)[C@H](Cc1c[nH]cn1)NC(=O)[C@H](CCCNC(=N)N)NC(=O)[C@H](CC(C)C)NC(=O)[C@H](Cc1ccccc1)NC(=O)[C@H](CC(=O)O)NC(=O)[C@H](C)NC(=O)[C@H](CC(C)C)NC(=O)[C@H](CCCNC(=N)N)NC(=O)[C@H](CCC(N)=O)NC(=O)[C@@H](NC(=O)[C@H](C)NC(=O)[C@@H]1CSSC[C@H](NC(=O)[C@@H](N)CCCCNC(=O)CC[C@H](NC(=O)CC[C@H](NC(=O)CCCCCCCCCCCCCCCCCCC(=O)O)C(=O)O)C(=O)O)C(=O)N[C@@H](CC(N)=O)C(=O)N[C@@H]([C@@H](C)O)C(=O)N[C@@H](C)C(=O)N[C@@H]([C@@H](C)O)C(=O)N1)[C@@H](C)O)C(=O)N1CCC[C@H]1C(=O)N[C@@H](CO)C(=O)N[C@@H](CO)C(=O)N[C@H](C(=O)N[C@@H](CC(N)=O)C(=O)N[C@H](C(=O)NCC(=O)N[C@@H](CO)C(=O)N[C@@H](CC(=O)O)C(=O)N[C@H](C(=O)N[C@@H](Cc1ccc(O)cc1)C(N)=O)[C@@H](C)O)C(C)C)[C@@H](C)O [Example 2] (H-K([γGlu-γGlu-C20 diacid])CNTATCATQRLADFLRHSSPNFGAIPSSTNVGSDTY-NH2; disulfide 2-7) | 9% | does not trigger a notable suppression of the calcium level
5.17 nM | 1.19 nM | 89.6 nM | 9.29 nM | 7 μM | 64 μM | 1.19 nM | 7.8 |  |  |  |  |  |  |  |  | CC[C@H](C)[C@H](NC(=O)[C@H](C)NC(=O)CNC(=O)[C@@H]1CCCN1C(=O)[C@H](CC(N)=O)NC(=O)[C@H](CC(N)=O)NC(=O)[C@H](CO)NC(=O)[C@H](CO)NC(=O)[C@H](Cc1c[nH]cn1)NC(=O)[C@H](CCCNC(=N)N)NC(=O)[C@H](CC(C)C)NC(=O)[C@H](Cc1ccccc1)NC(=O)[C@H](CCC(=O)O)NC(=O)[C@H](C)NC(=O)[C@H](CC(C)C)NC(=O)[C@H](CCCNC(=N)N)NC(=O)[C@H](CCC(N)=O)NC(=O)[C@@H](NC(=O)[C@H](C)NC(=O)[C@@H]1CSSC[C@H](NC(=O)[C@@H](N)CCCCNC(=O)CC[C@H](NC(=O)CC[C@H](NC(=O)CCCCCCCCCCCCCCCCCCC(=O)O)C(=O)O)C(=O)O)C(=O)N[C@@H](CC(N)=O)C(=O)N[C@@H]([C@@H](C)O)C(=O)N[C@@H](C)C(=O)N[C@@H]([C@@H](C)O)C(=O)N1)[C@@H](C)O)C(=O)N[C@@H](CC(C)C)C(=O)N[C@@H](CO)C(=O)N[C@@H](CO)C(=O)N[C@H](C(=O)N[C@@H](CC(N)=O)C(=O)N[C@H](C(=O)NCC(=O)N1CCC[C@H]1C(=O)N[C@@H](CCC(=O)O)C(=O)N[C@H](C(=O)N[C@@H](Cc1ccc(O)cc1)C(N)=O)[C@@H](C)O)C(C)C)[C@@H](C)O [Example 126] (H-K([γGlu-γGlu-C20 diacid])CNTATCATQRLAEFLRHSSNNPGAILSSTNVGPETY-NH2; disulfide 2-7) |  | 
0.253 nM | 1.02 nM | 1.73 nM | 66.3 nM |  |  |  |  | ≧200 μM | 109 μM | 26 μM | 31 μM | 6.8 | 6.8 | 6.8 | 6.8 | CC[C@H](C)[C@H](NC(=O)[C@H](C)NC(=O)CNC(=O)[C@H](Cc1ccccc1)NC(=O)[C@H](CC(N)=O)NC(=O)[C@@H]1CCCN1C(=O)[C@H](CO)NC(=O)[C@H](CO)NC(=O)[C@H](Cc1c[nH]cn1)NC(=O)[C@H](CCCNC(=N)N)NC(=O)[C@H](CC(C)C)NC(=O)[C@H](Cc1ccccc1)NC(=O)[C@H](Cc1c[nH]cn1)NC(=O)[C@H](C)NC(=O)[C@H](CC(C)C)NC(=O)[C@H](CCCNC(=N)N)NC(=O)[C@H](CCC(N)=O)NC(=O)[C@@H](NC(=O)[C@H](C)NC(=O)[C@@H]1CSSC[C@H](NC(=O)[C@H](CCCNC(=N)N)NC(=O)CNC(=O)CC[C@H](NC(=O)CCCCCCCCCCCCCCCCCCC(=O)O)C(=O)O)C(=O)N[C@@H](CC(N)=O)C(=O)N[C@@H]([C@@H](C)O)C(=O)N[C@@H](C)C(=O)N[C@@H]([C@@H](C)O)C(=O)N1)[C@@H](C)O)C(=O)N1CCC[C@H]1C(=O)N[C@@H](CO)C(=O)N[C@@H](CO)C(=O)N[C@H](C(=O)N[C@@H](CC(N)=O)C(=O)N[C@H](C(=O)NCC(=O)N[C@@H](Cc1c[nH]cn1)C(=O)N[C@@H](CC(N)=O)C(=O)N[C@H](C(=O)N[C@@H](Cc1ccc(O)cc1)C(N)=O)[C@@H](C)O)C(C)C)[C@@H](C)O [Example 100] ({C20 diacid-γGlu}-GRCNTATCATQRLAHFLRHSSPNFGAIPSSTNVGHNTY-NH2; disulfide 3-8) |  | 
0.047 nM | 0.088 nM | 1.03 nM | 9.63 nM |  |  |  |  | ≧200 μM | ≧200 μM | 96 μM | 48 μM |  |  |  |  | CC[C@H](C)[C@H](NC(=O)[C@H](C)NC(=O)CNC(=O)[C@H](Cc1ccccc1)NC(=O)[C@H](CC(N)=O)NC(=O)[C@@H]1CCCN1C(=O)[C@H](CO)NC(=O)[C@H](CO)NC(=O)[C@H](Cc1c[nH]cn1)NC(=O)[C@H](CCCNC(=N)N)NC(=O)[C@H](CC(C)C)NC(=O)[C@H](Cc1ccccc1)NC(=O)[C@H](CC(N)=O)NC(=O)[C@H](C)NC(=O)[C@H](CC(C)C)NC(=O)[C@H](CCCNC(=N)N)NC(=O)[C@H](CCC(N)=O)NC(=O)[C@@H](NC(=O)[C@H](C)NC(=O)[C@@H]1CSSC[C@H](NC(=O)[C@@H](N)CCCCNC(=O)COCCOCCNC(=O)CC[C@H](NC(=O)CCCCCCCCCCCCCCCCCCC(=O)O)C(=O)O)C(=O)N[C@@H](CC(N)=O)C(=O)N[C@@H]([C@@H](C)O)C(=O)N[C@@H](C)C(=O)N[C@@H]([C@@H](C)O)C(=O)N1)[C@@H](C)O)C(=O)N1CCC[C@H]1C(=O)N[C@@H](CO)C(=O)N[C@@H](CO)C(=O)N[C@H](C(=O)N[C@@H](CC(N)=O)C(=O)N[C@H](C(=O)NCC(=O)N1CCC[C@H]1C(=O)N[C@@H](Cc1c[nH]cn1)C(=O)N[C@H](C(=O)N[C@@H](Cc1ccc(O)cc1)C(N)=O)[C@@H](C)O)C(C)C)[C@@H](C)O [Example 58] (H-K([AEEA-γGlu-C20 diacid])CNTATCATQRLANFLRHSSPNFGAIPSSTNVGPHTY-NH2; disulfide 2-7) |  | 
